Measured values published in the NIST ThermoML archive (doi:10.1021/je060271a).
± gives the expanded uncertainty stated by the source.

Details: 323.14 K, Liquid, Vibrating tube method

`CCCCCC(=O)OCC(COC(=O)CCCCC)(COC(=O)CCCCC)COC(=O)CCCCC` [pentaerythritol tetrahexanoate] showed a mass density (4906.2 kPa) of 976 ± 1.2 kg/m3, a mass density (4926.8 kPa) of 976.1 ± 1.2 kg/m3 and a mass density (4951.5 kPa) of 976.2 ± 1.2 kg/m3. The mass density (4972.1 kPa) was 976.2 ± 1.2 kg/m3, the mass density (4997.4 kPa) was 976.1 ± 1.2 kg/m3 and the mass density (5018.6 kPa) was 976.1 ± 1.2 kg/m3. For the same compound, the mass density (5041 kPa) was 976.1 ± 1.2 kg/m3, the mass density (5066.8 kPa) was 976.1 ± 1.2 kg/m3 and the mass density (5088.6 kPa) was 976.2 ± 1.2 kg/m3. For the same compound, the mass density (5114.4 kPa) was 976.3 ± 1.2 kg/m3, the mass density (5140.5 kPa) was 976.2 ± 1.2 kg/m3 and the mass density (5162.3 kPa) was 976.3 ± 1.2 kg/m3. For the same compound, the mass density (5184.8 kPa) was 976.5 ± 1.2 kg/m3, the mass density (5212 kPa) was 976.3 ± 1.2 kg/m3 and the mass density (5233.9 kPa) was 976.3 ± 1.2 kg/m3. It also gave a mass density (5261.4 kPa) of 976.3 ± 1.2 kg/m3, a mass density (5289.1 kPa) of 976.3 ± 1.2 kg/m3 and a mass density (5313.2 kPa) of 976.3 ± 1.2 kg/m3. For the same compound, the mass density (5337.7 kPa) was 976.4 ± 1.2 kg/m3, the mass density (5363.2 kPa) was 976.4 ± 1.2 kg/m3 and the mass density (5392.1 kPa) was 976.2 ± 1.2 kg/m3. It also gave a mass density (5421.2 kPa) of 976.4 ± 1.2 kg/m3, a mass density (5445 kPa) of 976.5 ± 1.2 kg/m3 and a mass density (5469.8 kPa) of 976.5 ± 1.2 kg/m3. For the same compound, the mass density (5499.7 kPa) was 976.6 ± 1.2 kg/m3, the mass density (5530.1 kPa) was 976.4 ± 1.2 kg/m3 and the mass density (5555.5 kPa) was 976.6 ± 1.2 kg/m3. It also gave a mass density (5581.3 kPa) of 976.6 ± 1.2 kg/m3, a mass density (5611.7 kPa) of 976.5 ± 1.2 kg/m3 and a mass density (5635.4 kPa) of 976.5 ± 1.2 kg/m3. The mass density (5659 kPa) was 976.7 ± 1.2 kg/m3, the mass density (5678.8 kPa) was 976.7 ± 1.2 kg/m3 and the mass density (5695.8 kPa) was 976.6 ± 1.2 kg/m3. The mass density (5715.8 kPa) was 976.7 ± 1.2 kg/m3, the mass density (5733 kPa) was 976.7 ± 1.2 kg/m3 and the mass density (5749.7 kPa) was 976.7 ± 1.2 kg/m3. It also gave a mass density (5769.6 kPa) of 976.7 ± 1.2 kg/m3, a mass density (5786.4 kPa) of 976.7 ± 1.2 kg/m3 and a mass density (5806.6 kPa) of 976.8 ± 1.2 kg/m3. It also gave a mass density (5823.9 kPa) of 976.7 ± 1.2 kg/m3, a mass density (5844.1 kPa) of 976.7 ± 1.2 kg/m3 and a mass density (5861.2 kPa) of 976.8 ± 1.2 kg/m3. It also gave a mass density (5882.2 kPa) of 976.8 ± 1.2 kg/m3, a mass density (5899.3 kPa) of 976.7 ± 1.2 kg/m3 and a mass density (5920.4 kPa) of 976.7 ± 1.2 kg/m3. The mass density (5941.5 kPa) was 976.8 ± 1.2 kg/m3, the mass density (5959.1 kPa) was 976.8 ± 1.2 kg/m3 and the mass density (5976.7 kPa) was 976.8 ± 1.2 kg/m3. The mass density (5997.6 kPa) was 976.8 ± 1.2 kg/m3, the mass density (6015.1 kPa) was 976.8 ± 1.2 kg/m3 and the mass density (6036.5 kPa) was 977 ± 1.2 kg/m3. For the same compound, the mass density (6054.3 kPa) was 977 ± 1.2 kg/m3, the mass density (6075.8 kPa) was 976.9 ± 1.2 kg/m3 and the mass density (6094.3 kPa) was 976.9 ± 1.2 kg/m3. For the same compound, the mass density (6115.5 kPa) was 976.8 ± 1.2 kg/m3, the mass density (6134 kPa) was 976.9 ± 1.2 kg/m3 and the mass density (6155.6 kPa) was 976.8 ± 1.2 kg/m3. For the same compound, the mass density (6178.1 kPa) was 977.1 ± 1.2 kg/m3, the mass density (6196.6 kPa) was 977 ± 1.2 kg/m3 and the mass density (6361.8 kPa) was 977.1 ± 1.2 kg/m3. The mass density (6380.8 kPa) was 977.1 ± 1.2 kg/m3, the mass density (6403.6 kPa) was 977.1 ± 1.2 kg/m3 and the mass density (6426.8 kPa) was 977.2 ± 1.2 kg/m3. The mass density (6446.5 kPa) was 977.1 ± 1.2 kg/m3, the mass density (6465.6 kPa) was 977.2 ± 1.2 kg/m3 and the mass density (6489.3 kPa) was 977.1 ± 1.2 kg/m3. It also gave a mass density (6576.9 kPa) of 977.3 ± 1.2 kg/m3, a mass density (6597.3 kPa) of 977.2 ± 1.2 kg/m3 and a mass density (6621.1 kPa) of 977.3 ± 1.2 kg/m3. For the same compound, the mass density (6641.5 kPa) was 977.4 ± 1.2 kg/m3, the mass density (6666.6 kPa) was 977.2 ± 1.2 kg/m3 and the mass density (6690.9 kPa) was 977.4 ± 1.2 kg/m3. For the same compound, the mass density (6711.7 kPa) was 977.4 ± 1.2 kg/m3, the mass density (6732.6 kPa) was 977.4 ± 1.2 kg/m3 and the mass density (6757.6 kPa) was 977.4 ± 1.2 kg/m3. For the same compound, the mass density (6778.7 kPa) was 977.3 ± 1.2 kg/m3, the mass density (6803.9 kPa) was 977.3 ± 1.2 kg/m3 and the mass density (6825.5 kPa) was 977.5 ± 1.2 kg/m3. It also gave a mass density (6851.4 kPa) of 977.5 ± 1.2 kg/m3, a mass density (6873.7 kPa) of 977.5 ± 1.2 kg/m3 and a mass density (6899.4 kPa) of 977.5 ± 1.2 kg/m3. The mass density (6921.3 kPa) was 977.5 ± 1.2 kg/m3, the mass density (6947.4 kPa) was 977.5 ± 1.2 kg/m3 and the mass density (6973.7 kPa) was 977.5 ± 1.2 kg/m3. The mass density (6995.9 kPa) was 977.5 ± 1.2 kg/m3, the mass density (7019.4 kPa) was 977.6 ± 1.2 kg/m3 and the mass density (7043.5 kPa) was 977.5 ± 1.2 kg/m3. It also gave a mass density (7070.3 kPa) of 977.6 ± 1.2 kg/m3, a mass density (7093.1 kPa) of 977.7 ± 1.2 kg/m3 and a mass density (7120.7 kPa) of 977.6 ± 1.2 kg/m3. It also gave a mass density (7143.5 kPa) of 977.6 ± 1.2 kg/m3, a mass density (7170.6 kPa) of 977.7 ± 1.2 kg/m3 and a mass density (7194.3 kPa) of 977.8 ± 1.2 kg/m3. For the same compound, the mass density (7222.1 kPa) was 977.7 ± 1.2 kg/m3, the mass density (7250.4 kPa) was 977.7 ± 1.2 kg/m3 and the mass density (7273.9 kPa) was 977.8 ± 1.2 kg/m3. For the same compound, the mass density (7297.5 kPa) was 977.6 ± 1.2 kg/m3, the mass density (7326.7 kPa) was 977.8 ± 1.2 kg/m3 and the mass density (7351.7 kPa) was 977.8 ± 1.2 kg/m3. For the same compound, the mass density (7381.1 kPa) was 977.8 ± 1.2 kg/m3, the mass density (7460.9 kPa) was 977.8 ± 1.2 kg/m3 and the mass density (7573.4 kPa) was 977.9 ± 1.2 kg/m3. The mass density (7631.6 kPa) was 977.9 ± 1.2 kg/m3, the mass density (7784.6 kPa) was 978.1 ± 1.2 kg/m3 and the mass density (7812.4 kPa) was 978 ± 1.2 kg/m3. The mass density (7839.9 kPa) was 978.1 ± 1.2 kg/m3, the mass density (7863.3 kPa) was 978.1 ± 1.2 kg/m3 and the mass density (8237.7 kPa) was 978.4 ± 1.2 kg/m3. The mass density (8267.6 kPa) was 978.3 ± 1.2 kg/m3, the mass density (8292.8 kPa) was 978.4 ± 1.2 kg/m3 and the mass density (8323.1 kPa) was 978.5 ± 1.2 kg/m3. It also gave a mass density (8348.5 kPa) of 978.4 ± 1.2 kg/m3, a mass density (8379 kPa) of 978.5 ± 1.2 kg/m3 and a mass density (8410 kPa) of 978.4 ± 1.2 kg/m3. For the same compound, the mass density (8436.3 kPa) was 978.5 ± 1.2 kg/m3, the mass density (8466.9 kPa) was 978.5 ± 1.2 kg/m3 and the mass density (8498.7 kPa) was 978.5 ± 1.2 kg/m3. It also gave a mass density (8525.2 kPa) of 978.6 ± 1.2 kg/m3, a mass density (8557.3 kPa) of 978.5 ± 1.2 kg/m3 and a mass density (8584.2 kPa) of 978.6 ± 1.2 kg/m3. For the same compound, the mass density (8617 kPa) was 978.7 ± 1.2 kg/m3, the mass density (8645.1 kPa) was 978.7 ± 1.2 kg/m3 and the mass density (8678.7 kPa) was 978.7 ± 1.2 kg/m3. For the same compound, the mass density (8712.2 kPa) was 978.7 ± 1.2 kg/m3, the mass density (8740.6 kPa) was 978.8 ± 1.2 kg/m3 and the mass density (8775.3 kPa) was 978.7 ± 1.2 kg/m3. It also gave a mass density (8805.1 kPa) of 978.8 ± 1.2 kg/m3, a mass density (8840.3 kPa) of 978.8 ± 1.2 kg/m3 and a mass density (8877 kPa) of 978.8 ± 1.2 kg/m3. For the same compound, the mass density (8907.8 kPa) was 978.7 ± 1.2 kg/m3, the mass density (8944 kPa) was 978.8 ± 1.2 kg/m3 and the mass density (8971.8 kPa) was 978.9 ± 1.2 kg/m3. The mass density (8997.6 kPa) was 978.9 ± 1.2 kg/m3, the mass density (9020.2 kPa) was 978.9 ± 1.2 kg/m3 and the mass density (9142.1 kPa) was 979 ± 1.2 kg/m3. For the same compound, the mass density (9164.7 kPa) was 979.1 ± 1.2 kg/m3, the mass density (9183.3 kPa) was 978.9 ± 1.2 kg/m3 and the mass density (9204.3 kPa) was 978.9 ± 1.2 kg/m3. It also gave a mass density (9226.4 kPa) of 978.9 ± 1.2 kg/m3, a mass density (9720.5 kPa) of 979.3 ± 1.2 kg/m3 and a mass density (9812.4 kPa) of 979.5 ± 1.2 kg/m3. It also gave a mass density (9820.8 kPa) of 979.4 ± 1.2 kg/m3, a mass density (9834.6 kPa) of 979.4 ± 1.2 kg/m3 and a mass density (9846 kPa) of 979.4 ± 1.2 kg/m3. It also gave a mass density (9859.9 kPa) of 979.4 ± 1.2 kg/m3.
